Assay results: the CheMixHub ionic liquid set

Experiment: xn = mol fraction of the nth substance listed

CCCC[n+]1ccccc1.[Br-] + CC[n+]1ccccc1.[Br-]
viscosity [mPa·s], 101 kPa
Details	x2 = 0.085	x2 = 0.197	x2 = 0.269	x2 = 0.352	x2 = 0.52	x2 = 0.621	x2 = 0.689	x2 = 0.811	x2 = 0.903
353.1 K	–	–	–	–	93.7	–	–	–	–
358.1 K	–	–	–	–	77.4	–	–	–	–
363.1 K	–	–	–	86.2	64.2	53.8	–	–	–
368.1 K	–	–	80.4	70.3	53.7	45.6	–	–	–
373.1 K	–	–	65.3	57.8	45.1	38.8	–	–	–
378.1 K	–	–	53.5	47.8	38.1	33.2	30.3	–	–
383.1 K	–	–	44.2	39.9	32.4	28.6	26.3	–	–
388.1 K	45.3	40.8	36.8	33.5	27.7	24.7	22.9	19.85	–
393.1 K	37.4	34.2	30.9	28.3	23.9	21.5	20	17.61	–
398.1 K	31.1	28.9	26.2	24.2	20.7	18.8	17.59	15.64	14.32
403.1 K	26.2	24.7	22.3	20.8	18	16.46	15.52	13.94	12.86
408.1 K	22.2	21.2	19.2	18	15.75	14.52	13.76	12.45	11.57
413.1 K	19.1	18.5	16.65	15.64	13.88	12.86	12.25	11.17	10.44
418.1 K	16.53	16.2	14.56	13.73	12.29	11.46	10.97	10.06	9.44
423.1 K	14.47	14.35	12.83	12.15	10.96	10.26	9.85	9.08	8.56
428.1 K	12.78	12.83	11.41	10.82	9.83	9.23	8.89	8.23	7.77
433.1 K	11.41	–	10.23	9.72	8.87	8.35	8.06	7.49	7.08
438.1 K	10.3	10.55	9.25	8.8	8.05	7.59	7.34	6.83	6.46
443.1 K	9.39	–	8.44	8.03	7.36	6.93	6.71	6.25	5.91

CC(O)C(=O)[O-].CN(C)CCOCC[NH+](C)C + O
Details	viscosity [mPa·s]
298.15 K, 100 kPa, x1 = 0.06665	2.86

CCCn1cc[n+](C)c1.O=S(=O)([N-]S(=O)(=O)C(F)(F)F)C(F)(F)F + O
100 kPa, x2 = 0.272
Details	viscosity [mPa·s]
308.15 K	18.83
318.15 K	13.95
323.15 K	12.19
343.15 K	7.64
353.15 K	6.25

O + CCCC[n+]1ccn(C)c1.[Br-]
101 kPa, x2 = 0
Details	electrical conductivity [S/m]
288.15 K	0.000101
298.15 K	0.00015
308.15 K	0.000216

O + CCOS(=O)(=O)[O-].CC[n+]1ccn(C)c1
Details	electrical conductivity [S/m]
298.15 K, 101.3 kPa, x1 = 1	0.00264

CCCC[n+]1ccn(C)c1.O=C([O-])C(F)(F)F + CC#N
298.15 K, 101 kPa, x2 = 0.2556
Details	electrical conductivity [S/m]	viscosity [mPa·s]
–	0.84	24.6

O + CCCCCCCCCCCCCC[n+]1ccccc1.O=C([O-])C(O)c1ccccc1 + CC(C)C[C@H](N)C(=O)O
101 kPa, x2 = 0, x3 = 0
Details	electrical conductivity [S/m]
293.15 K	0.00012
298.15 K	0.00015
303.15 K	0.00016
308.15 K	0.00017
313.15 K	0.00019

CC[NH+](C)CC.O=S(=O)([O-])C(F)(F)F + O + CC[NH+](C)CC.CS(=O)(=O)[O-]
viscosity [mPa·s], 101 kPa
Details	x2 = 0.027, x1 = 0.973	x2 = 0.05, x1 = 0.717	x2 = 0.07, x1 = 0.498	x2 = 0.089, x1 = 0.309	x2 = 0.107, x1 = 0.143	x2 = 0.114, x1 = 0.069
293.15 K	53.3	78.1	101.7	116.8	125.2	128.3
313.15 K	25.8	34	40.9	44.4	45.8	46.1
333.15 K	14.6	17.9	20.4	21.4	21.6	21.7
353.15 K	9.18	10.7	11.74	12.07	12.03	12.06

CN(CCO)CCO + CC(=O)[O-].CC[n+]1ccn(C)c1
101 kPa, x2 = 0
Details	electrical conductivity [S/m]	viscosity [mPa·s]
288.15 K	0.000224	–
293.15 K	0.00029	–
298.15 K	0.000397	–
303.15 K	0.000528	–
308.15 K	0.000675	–
313.15 K	0.000896	–
318.15 K	0.00113	–
323.15 K	0.00144	–
328.15 K	0.00187	16.9
333.15 K	0.00236	–
338.15 K	0.00295	11.56
343.15 K	0.00365	9.79
348.15 K	0.00455	–
353.15 K	0.00556	–

CC1COC(=O)O1 (stereo not given) + CC[n+]1ccn(C)c1C.O=S(=O)([N-]S(=O)(=O)C(F)(F)F)C(F)(F)F
101.3 kPa, x2 = 0
Details	viscosity [mPa·s]
308.15 K	2.049
348.15 K	1.14

CCC[N+]1(C)CCCC1.O=S(=O)([N-]S(=O)(=O)C(F)(F)F)C(F)(F)F + CCC[N+]1(C)CCCC1.N#C[N-]C#N
101 kPa, x2 = 0
Details	electrical conductivity [S/m]	viscosity [mPa·s]
313.15 K	0.678	34.4
353.15 K	–	11.6
